In the kinase profiling compilation of Christmann-Franck et al. (2016):

Legend:
Assay in all cases: radiometric filter-binding kinase assay, Kinase HotSpot
Conditions in all cases: compound 0.5 µM; ATP 10 µM
[1] = biological target: CAMK1D (human) (UniProt Q8IU85)
[2] = biological target: CAMK4 (human) (UniProt Q16566)
[3] = biological target: CAMKK1 (human) (UniProt Q8N5S9)
[4] = biological target: CDK4 CCND1 (human) (UniProt P24385+P11802)
[5] = biological target: CSNK1G2 (human) (UniProt P78368)
[6] = biological target: CSNK2A1 (human) (UniProt P68400)
[7] = biological target: DYRK2 (human) (UniProt Q92630)
[8] = biological target: FGFR2 (human) (UniProt P21802)
[9] = biological target: GRK5 (human) (UniProt P34947)
[10] = biological target: HCK (human) (UniProt P08631)
[11] = biological target: LRRK2 (human) (UniProt Q5S007)
[12] = biological target: LTK (human) (UniProt P29376)
[13] = biological target: MAP3K9 (human) (UniProt P80192)
[14] = biological target: MAPK10 (human) (UniProt P53779)
[15] = biological target: MAPK12 (human) (UniProt P53778)
[16] = biological target: MAPK14 (human) (UniProt Q16539)
[17] = biological target: MAPK8 (human) (UniProt P45983)
[18] = biological target: MELK (human) (UniProt Q14680)
[19] = biological target: MST1R (human) (UniProt Q04912)
[20] = biological target: NEK11 (human) (UniProt Q8NG66)
[21] = biological target: NEK2 (human) (UniProt P51955)
[22] = biological target: NLK (human) (UniProt Q9UBE8)
[23] = biological target: PAK4 (human) (UniProt O96013)
[24] = biological target: PDPK1 (human) (UniProt O15530)
[25] = biological target: PKN1 (human) (UniProt Q16512)
[26] = biological target: PRKCB2 (human) (UniProt P05771)
[27] = biological target: PRKCZ (human) (UniProt Q05513)
[28] = biological target: PTK2 (human) (UniProt Q05397)
[29] = biological target: RPS6KA1 KD1 KD2 (human) (UniProt Q15418)
[30] = biological target: RPS6KB2 (human) (UniProt Q9UBS0)
[31] = biological target: SGK2 (human) (UniProt Q9HBY8)
[32] = biological target: SIK2 (human) (UniProt Q9H0K1)
[33] = biological target: SRMS (human) (UniProt Q9H3Y6)
[34] = biological target: SRPK2 (human) (UniProt P78362)
[35] = biological target: TAOK3 (human) (UniProt Q9H2K8)
[36] = biological target: TEK (human) (UniProt Q02763)
[37] = biological target: TGFBR1 (human) (UniProt P36897)
[38] = biological target: TSSK1B (human) (UniProt Q9BXA7)
[39] = biological target: TYRO3 (human) (UniProt Q06418)
[40] = biological target: WEE1 (human) (UniProt P30291)
[41] = biological target: WNK2 (human) (UniProt Q9Y3S1)
[42] = biological target: YES1 (human) (UniProt P07947)
Chain of YES1 (human) (P07947 whole entry, looked up): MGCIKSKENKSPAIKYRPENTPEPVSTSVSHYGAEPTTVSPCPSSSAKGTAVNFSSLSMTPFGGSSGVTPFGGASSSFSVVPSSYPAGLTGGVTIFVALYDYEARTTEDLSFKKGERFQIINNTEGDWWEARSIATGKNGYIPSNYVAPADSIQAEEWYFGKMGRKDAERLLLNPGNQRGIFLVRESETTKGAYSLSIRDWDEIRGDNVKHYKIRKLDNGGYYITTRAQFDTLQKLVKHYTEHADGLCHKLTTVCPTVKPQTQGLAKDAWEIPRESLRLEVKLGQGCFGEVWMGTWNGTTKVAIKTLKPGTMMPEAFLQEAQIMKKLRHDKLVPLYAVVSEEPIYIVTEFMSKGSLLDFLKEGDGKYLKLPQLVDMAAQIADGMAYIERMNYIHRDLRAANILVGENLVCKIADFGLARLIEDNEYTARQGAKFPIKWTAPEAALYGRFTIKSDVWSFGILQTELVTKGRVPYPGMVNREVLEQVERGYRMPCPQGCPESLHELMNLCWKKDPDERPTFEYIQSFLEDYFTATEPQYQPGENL

Chain of PDPK1 (human) (O15530 whole entry, looked up): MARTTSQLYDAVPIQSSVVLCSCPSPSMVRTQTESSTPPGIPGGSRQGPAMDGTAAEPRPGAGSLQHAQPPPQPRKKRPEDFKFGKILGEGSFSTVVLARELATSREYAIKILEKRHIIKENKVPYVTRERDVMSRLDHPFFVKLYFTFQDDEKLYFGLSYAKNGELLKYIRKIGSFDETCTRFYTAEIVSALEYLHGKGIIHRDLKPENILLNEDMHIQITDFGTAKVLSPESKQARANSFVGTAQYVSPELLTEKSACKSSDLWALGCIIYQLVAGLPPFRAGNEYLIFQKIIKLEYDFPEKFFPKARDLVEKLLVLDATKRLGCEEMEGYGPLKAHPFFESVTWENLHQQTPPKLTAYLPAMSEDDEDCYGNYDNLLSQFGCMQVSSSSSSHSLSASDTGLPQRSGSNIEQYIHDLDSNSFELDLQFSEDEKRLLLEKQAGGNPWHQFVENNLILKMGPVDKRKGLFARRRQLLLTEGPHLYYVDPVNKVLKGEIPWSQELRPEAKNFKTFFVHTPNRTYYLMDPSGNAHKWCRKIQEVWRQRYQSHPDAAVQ
Chain of NLK (human) (Q9UBE8 whole entry, looked up): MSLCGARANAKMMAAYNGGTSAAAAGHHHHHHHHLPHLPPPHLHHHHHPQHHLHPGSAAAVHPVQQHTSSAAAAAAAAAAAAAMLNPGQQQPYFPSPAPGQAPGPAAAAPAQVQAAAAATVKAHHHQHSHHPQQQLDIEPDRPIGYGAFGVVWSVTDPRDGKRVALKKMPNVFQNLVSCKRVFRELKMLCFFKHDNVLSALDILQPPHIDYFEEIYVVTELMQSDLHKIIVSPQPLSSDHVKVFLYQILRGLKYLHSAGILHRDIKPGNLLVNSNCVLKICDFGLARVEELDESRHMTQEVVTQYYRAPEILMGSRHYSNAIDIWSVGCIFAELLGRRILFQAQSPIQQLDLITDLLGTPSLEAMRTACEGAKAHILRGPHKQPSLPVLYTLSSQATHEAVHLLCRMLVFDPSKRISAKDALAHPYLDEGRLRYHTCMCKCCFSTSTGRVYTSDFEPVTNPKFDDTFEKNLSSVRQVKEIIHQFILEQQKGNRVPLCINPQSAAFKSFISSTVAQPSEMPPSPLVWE
Chain of CSNK1G2 (human) (P78368 whole entry, looked up): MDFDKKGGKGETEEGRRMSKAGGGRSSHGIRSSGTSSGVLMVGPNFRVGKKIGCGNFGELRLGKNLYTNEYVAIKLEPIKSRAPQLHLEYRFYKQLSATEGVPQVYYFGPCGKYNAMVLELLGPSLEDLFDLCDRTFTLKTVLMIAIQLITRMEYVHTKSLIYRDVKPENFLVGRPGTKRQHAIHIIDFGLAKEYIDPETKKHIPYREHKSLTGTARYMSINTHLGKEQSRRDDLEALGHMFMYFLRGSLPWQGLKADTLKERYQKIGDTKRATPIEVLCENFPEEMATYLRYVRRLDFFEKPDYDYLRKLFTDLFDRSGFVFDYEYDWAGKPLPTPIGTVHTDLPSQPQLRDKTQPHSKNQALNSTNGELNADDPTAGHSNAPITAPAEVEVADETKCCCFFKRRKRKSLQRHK
Chain of MAPK8 (human) (P45983 whole entry, looked up): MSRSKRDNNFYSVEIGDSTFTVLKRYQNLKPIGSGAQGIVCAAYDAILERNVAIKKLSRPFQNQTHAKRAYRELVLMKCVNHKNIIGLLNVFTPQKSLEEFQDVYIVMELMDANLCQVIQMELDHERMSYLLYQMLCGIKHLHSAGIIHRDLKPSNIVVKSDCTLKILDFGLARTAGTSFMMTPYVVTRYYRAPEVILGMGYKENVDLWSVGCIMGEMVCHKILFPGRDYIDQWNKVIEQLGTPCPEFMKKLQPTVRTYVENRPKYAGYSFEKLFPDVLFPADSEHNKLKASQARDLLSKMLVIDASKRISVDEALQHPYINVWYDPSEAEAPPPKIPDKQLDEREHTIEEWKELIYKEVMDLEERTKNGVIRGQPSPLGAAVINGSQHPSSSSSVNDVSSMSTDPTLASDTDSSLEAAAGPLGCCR
Chain of PRKCZ (human) (Q05513 whole entry, looked up): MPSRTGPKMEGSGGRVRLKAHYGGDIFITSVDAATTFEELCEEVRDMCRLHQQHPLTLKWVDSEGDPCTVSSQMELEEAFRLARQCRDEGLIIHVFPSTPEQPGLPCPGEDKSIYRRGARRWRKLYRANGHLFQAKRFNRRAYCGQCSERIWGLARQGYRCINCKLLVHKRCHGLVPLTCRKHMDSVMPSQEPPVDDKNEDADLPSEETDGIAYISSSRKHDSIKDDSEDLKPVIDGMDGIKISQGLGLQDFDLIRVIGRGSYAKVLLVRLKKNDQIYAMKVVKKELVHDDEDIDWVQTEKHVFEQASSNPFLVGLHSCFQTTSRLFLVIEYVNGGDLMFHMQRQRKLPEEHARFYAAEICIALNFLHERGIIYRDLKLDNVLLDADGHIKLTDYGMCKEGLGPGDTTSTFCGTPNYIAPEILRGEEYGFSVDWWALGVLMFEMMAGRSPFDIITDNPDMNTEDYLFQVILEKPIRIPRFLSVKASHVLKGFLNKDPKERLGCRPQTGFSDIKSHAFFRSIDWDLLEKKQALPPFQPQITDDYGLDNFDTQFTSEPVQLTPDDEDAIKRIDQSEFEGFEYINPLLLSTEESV
Chain of SIK2 (human) (Q9H0K1 whole entry, looked up): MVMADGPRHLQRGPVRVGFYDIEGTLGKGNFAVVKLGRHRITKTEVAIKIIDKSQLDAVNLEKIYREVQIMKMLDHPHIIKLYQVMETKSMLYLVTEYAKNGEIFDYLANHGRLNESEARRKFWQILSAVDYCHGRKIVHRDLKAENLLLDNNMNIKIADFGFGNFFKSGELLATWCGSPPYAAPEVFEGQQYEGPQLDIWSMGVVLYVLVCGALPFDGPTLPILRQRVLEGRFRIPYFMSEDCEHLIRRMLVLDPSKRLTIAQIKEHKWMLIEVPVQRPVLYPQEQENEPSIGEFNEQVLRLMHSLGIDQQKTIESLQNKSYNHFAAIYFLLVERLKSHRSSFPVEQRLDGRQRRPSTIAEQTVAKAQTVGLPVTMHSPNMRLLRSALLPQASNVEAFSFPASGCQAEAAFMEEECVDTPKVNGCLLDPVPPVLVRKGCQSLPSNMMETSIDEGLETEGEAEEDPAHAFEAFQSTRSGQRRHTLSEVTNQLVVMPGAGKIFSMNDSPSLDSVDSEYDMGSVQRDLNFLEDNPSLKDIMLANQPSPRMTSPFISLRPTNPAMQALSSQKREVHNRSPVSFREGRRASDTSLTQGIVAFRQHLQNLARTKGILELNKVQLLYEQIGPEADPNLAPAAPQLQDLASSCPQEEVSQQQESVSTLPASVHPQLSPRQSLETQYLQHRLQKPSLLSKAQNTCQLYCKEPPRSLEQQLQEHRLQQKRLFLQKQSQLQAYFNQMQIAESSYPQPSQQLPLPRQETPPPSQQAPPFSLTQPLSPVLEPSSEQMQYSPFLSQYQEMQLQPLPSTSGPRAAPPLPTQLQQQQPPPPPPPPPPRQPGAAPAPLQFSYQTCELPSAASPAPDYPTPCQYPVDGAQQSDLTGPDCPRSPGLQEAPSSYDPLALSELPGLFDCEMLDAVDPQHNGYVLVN
Chain of NEK2 (human) (P51955 whole entry, looked up): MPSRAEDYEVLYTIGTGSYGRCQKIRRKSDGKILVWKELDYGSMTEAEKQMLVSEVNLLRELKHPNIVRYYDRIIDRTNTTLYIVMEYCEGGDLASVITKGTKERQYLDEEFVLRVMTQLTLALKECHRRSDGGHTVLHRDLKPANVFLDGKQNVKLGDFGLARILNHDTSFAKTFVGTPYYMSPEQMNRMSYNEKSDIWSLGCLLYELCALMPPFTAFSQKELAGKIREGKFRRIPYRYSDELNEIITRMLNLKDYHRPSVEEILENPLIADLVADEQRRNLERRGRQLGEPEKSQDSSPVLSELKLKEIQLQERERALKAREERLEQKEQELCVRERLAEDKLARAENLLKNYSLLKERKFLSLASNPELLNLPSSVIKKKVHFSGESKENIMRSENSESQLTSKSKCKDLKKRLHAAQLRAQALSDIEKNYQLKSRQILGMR
Chain of RPS6KB2 (human) (Q9UBS0 whole entry, looked up): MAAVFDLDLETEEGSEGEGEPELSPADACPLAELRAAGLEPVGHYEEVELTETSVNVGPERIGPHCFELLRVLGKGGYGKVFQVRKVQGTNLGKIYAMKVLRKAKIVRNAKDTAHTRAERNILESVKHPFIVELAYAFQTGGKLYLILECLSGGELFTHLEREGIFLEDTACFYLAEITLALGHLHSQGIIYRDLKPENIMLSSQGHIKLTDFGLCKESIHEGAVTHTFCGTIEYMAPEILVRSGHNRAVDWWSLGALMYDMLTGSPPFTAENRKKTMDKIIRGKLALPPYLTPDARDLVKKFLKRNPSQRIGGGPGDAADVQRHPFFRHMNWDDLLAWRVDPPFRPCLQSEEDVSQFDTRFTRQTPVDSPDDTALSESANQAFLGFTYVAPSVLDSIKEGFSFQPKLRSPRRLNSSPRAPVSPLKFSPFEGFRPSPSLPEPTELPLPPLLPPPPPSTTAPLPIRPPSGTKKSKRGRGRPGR

## Nc1nc(Nc2ccc(S(N)(=O)=O)cc2)nn1C(=S)Nc1c(F)cccc1F
[1]
  residual activity: 93.4%
[2]
  residual activity: 98.8%
[3]
  residual activity: 36%
[4]
  residual activity: 87.7%
[5]
  residual activity: 14.8%
[6]
  residual activity: 76.6%
[7]
  residual activity: 60.4%
[8]
  residual activity: 7.43%
[9]
  residual activity: 75.6%
[10]
  residual activity: 37.9%
[11]
  residual activity: 1.33%
[12]
  residual activity: 27.6%
[13]
  residual activity: -0.373%
[14]
  residual activity: 105%
[15]
  residual activity: 95.2%
[16]
  residual activity: 95.4%
[17]
  residual activity: 78.8%
[18]
  residual activity: 32.7%
[19]
  residual activity: 56%
[20]
  residual activity: 101%
[21]
  residual activity: 98.3%
[22]
  residual activity: 45.1%
[23]
  residual activity: 47.6%
[24]
  residual activity: 19.3%
[25]
  residual activity: 9.7%
[26]
  residual activity: 74.5%
[27]
  residual activity: 83.7%
[28]
  residual activity: 25.3%
[29]
  residual activity: 5.34%
[30]
  residual activity: 96.2%
[31]
  residual activity: 42%
[32]
  residual activity: 16.1%
[33]
  residual activity: 94%
[34]
  residual activity: 17.1%
[35]
  residual activity: 10%
[36]
  residual activity: 5.06%
[37]
  residual activity: 81.8%
[38]
  residual activity: 13.7%
[39]
  residual activity: 29.8%
[40]
  residual activity: 100%
[41]
  residual activity: 97.9%
[42]
  residual activity: 10.5%

## Oc1ccc(-c2nc(-c3ccc(F)cc3)c(-c3ccncc3)[nH]2)cc1
[1]
  residual activity: 102%
[2]
  residual activity: 102%
[3]
  residual activity: 123%
[4]
  residual activity: 105%
[5]
  residual activity: 91.9%
[6]
  residual activity: 92.4%
[7]
  residual activity: 99.3%
[8]
  residual activity: 103%
[9]
  residual activity: 104%
[10]
  residual activity: 97.6%
[11]
  residual activity: 95.8%
[12]
  residual activity: 97.1%
[13]
  residual activity: 53.1%
[14]
  residual activity: 117%
[15]
  residual activity: 102%
[16]
  residual activity: 7.42%
[17]
  residual activity: 98%
[18]
  residual activity: 102%
[19]
  residual activity: 102%
[20]
  residual activity: 80.6%
[21]
  residual activity: 101%
[22]
  residual activity: 46.1%
[23]
  residual activity: 98.6%
[24]
  residual activity: 98.2%
[25]
  residual activity: 78.9%
[26]
  residual activity: 75%
[27]
  residual activity: 109%
[28]
  residual activity: 96.9%
[29]
  residual activity: 98.1%
[30]
  residual activity: 91.4%
[31]
  residual activity: 99.6%
[32]
  residual activity: 83.4%
[33]
  residual activity: 102%
[34]
  residual activity: 102%
[35]
  residual activity: 103%
[36]
  residual activity: 99.6%
[37]
  residual activity: 108%
[38]
  residual activity: 104%
[39]
  residual activity: 97.5%
[40]
  residual activity: 94.9%
[41]
  residual activity: 102%
[42]
  residual activity: 84.7%

## O=C1Nc2ccccc2/C1=C\c1c(Cl)[nH]c2ccccc12
[1]
  residual activity: 102%
[2]
  residual activity: 102%
[3]
  residual activity: 116%
[4]
  residual activity: 98.4%
[5]
  residual activity: 96.3%
[6]
  residual activity: 89.4%
[7]
  residual activity: 103%
[8]
  residual activity: 102%
[9]
  residual activity: 109%
[10]
  residual activity: 98.5%
[11]
  residual activity: 102%
[12]
  residual activity: 95.1%
[13]
  residual activity: 97.9%
[14]
  residual activity: 103%
[15]
  residual activity: 93%
[16]
  residual activity: 101%
[17]
  residual activity: 93.5%
[18]
  residual activity: 85.7%
[19]
  residual activity: 97.5%
[20]
  residual activity: 98.5%
[21]
  residual activity: 99%
[22]
  residual activity: 107%
[23]
  residual activity: 104%
[24]
  residual activity: 94.3%
[25]
  residual activity: 94.6%
[26]
  residual activity: 92.6%
[27]
  residual activity: 103%
[28]
  residual activity: 101%
[29]
  residual activity: 105%
[30]
  residual activity: 99.4%
[31]
  residual activity: 103%
[32]
  residual activity: 103%
[33]
  residual activity: 84.2%
[34]
  residual activity: 94.4%
[35]
  residual activity: 93.9%
[36]
  residual activity: 97.1%
[37]
  residual activity: 94.4%
[38]
  residual activity: 101%
[39]
  residual activity: 99.4%
[40]
  residual activity: 107%
[41]
  residual activity: 93.4%
[42]
  residual activity: 93.9%

## O=C(Nc1ccc(Cl)cc1)c1ccccc1NCc1ccncc1
[1]
  residual activity: 95.3%
[2]
  residual activity: 101%
[3]
  residual activity: 98.5%
[4]
  residual activity: 104%
[5]
  residual activity: 88.3%
[6]
  residual activity: 91.1%
[7]
  residual activity: 96%
[8]
  residual activity: 95.7%
[9]
  residual activity: 97.3%
[10]
  residual activity: 101%
[11]
  residual activity: 98.7%
[12]
  residual activity: 104%
[13]
  residual activity: 89%
[14]
  residual activity: 89.9%
[15]
  residual activity: 97.3%
[16]
  residual activity: 128%
[17]
  residual activity: 109%
[18]
  residual activity: 92.3%
[19]
  residual activity: 90.5%
[20]
  residual activity: 104%
[21]
  residual activity: 88.4%
[22]
  residual activity: 87.2%
[23]
  residual activity: 90.6%
[24]
  residual activity: 95.3%
[25]
  residual activity: 95.2%
[26]
  residual activity: 93.3%
[27]
  residual activity: 100%
[28]
  residual activity: 95.7%
[29]
  residual activity: 92%
[30]
  residual activity: 105%
[31]
  residual activity: 103%
[32]
  residual activity: 94.8%
[33]
  residual activity: 97.9%
[34]
  residual activity: 85.1%
[35]
  residual activity: 94.1%
[36]
  residual activity: 92.4%
[37]
  residual activity: 100%
[38]
  residual activity: 103%
[39]
  residual activity: 105%
[40]
  residual activity: 90.1%
[41]
  residual activity: 101%
[42]
  residual activity: 95.3%
